From publication PMC10050424, “Structural basis of the substrate recognition and inhibition mechanism of Plasmodium falciparum nucleoside transporter PfENT1” (Nature Communications, 2023) come the findings set out here.

One experiment has as its target T1, PfENT1 Q135A (Plasmodium falciparum, UniProt Q8IDM6, Q135A).
T1 construct: expressed in transfected cells; host or cells: S. cerevisiae BY4741, FUI1 deleted, PfENT1 mutant knock-in under the TEF1 promoter
The experiment in a line: Inosine uptake assay, yeast expressing PfENT1 Q135A. The conditions noted are these: Fig. 3d, construct Q135A. The class given is cell-based. From the text: (§1) Codon-optimized PfENT1 (for expression in yeast) was synthesized by Sangon Biotech. The carboxyl terminus of PfENT1 was HA-tagged through PCR. The TEF1p promoter and PGK1t terminator were amplified from BY4741 genomic DNA. Overlap PCR was applied to generate the gene overexpression cassette of PfENT1 (TEF1p promoter-PfENT1-PGK1t terminator). The two 600-bp homologous arms corresponding to the upstream and downstream regions of the FUI1 gene were amplified from BY4741 genomic DNA. The gene cassette of the ‘TEF1p promoter-PfENT1-PGK1t terminator’ together with the two homologous arms was cloned into the PUC19 plasmid through Gibson assembly, generating the final plasmid PUC19: PfENT1. PfENT1 mutations were generated using point mutation and verified by Sanger sequencing. The spacer targeting the FUI1 gene (5ʹ-[…]-3ʹ) was cloned into the pCas-BsaI plasmid to generate the pCas-FUI1 plasmid as described previously. […]
(§2) Cells were grown overnight in YPD medium to mid-log phase and harvested by centrifugation at 3000 × g for 5 min. […] After washing by vacuum filtration with 2 ml ice-cold 2% glucose, the radioactivity retained on the filter was incubated with 1 mL of ULTIMA GOLD scintillation fluid (Perkin Elmer, 77-15311). Counts were measured using a liquid scintillation analyzer (Perkin Elmer, Tri-Carb 5110TR). […]

For the next experiment, the target named is T2, PfENT1 D287A (Plasmodium falciparum, UniProt Q8IDM6, D287A).
T2 construct: expressed in transfected cells; host or cells: S. cerevisiae BY4741, FUI1 deleted, PfENT1 mutant knock-in under the TEF1 promoter
The experiment in a line: Inosine uptake assay, yeast expressing PfENT1 D287A. The class given is cell-based. Particulars: Fig. 3d, construct D287A.
Source text: as §1, §2

A further experiment addresses T3, PfENT1Y190A (Plasmodium falciparum, UniProt Q8IDM6, Y190A).
T3 construct: 10xHis (N); made in house; host or cells: Sf9 insect cells (baculovirus)
T3 sequence (Q8IDM6 1-422 Y190A): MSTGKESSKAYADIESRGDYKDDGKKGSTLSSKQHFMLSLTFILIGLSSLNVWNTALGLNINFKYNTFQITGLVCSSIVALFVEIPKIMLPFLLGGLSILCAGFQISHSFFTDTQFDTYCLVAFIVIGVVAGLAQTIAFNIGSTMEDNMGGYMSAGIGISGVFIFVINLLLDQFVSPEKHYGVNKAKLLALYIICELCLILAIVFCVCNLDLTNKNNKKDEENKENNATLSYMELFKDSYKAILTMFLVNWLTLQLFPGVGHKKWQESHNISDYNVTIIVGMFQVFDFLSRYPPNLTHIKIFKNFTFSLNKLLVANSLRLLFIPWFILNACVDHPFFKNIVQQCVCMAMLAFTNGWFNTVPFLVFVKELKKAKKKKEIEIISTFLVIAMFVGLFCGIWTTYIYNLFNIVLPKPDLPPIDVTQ
The experiment is described as follows: ITC binding to PfENT1Y190A. The conditions noted are these: compared with wild type. On the procedure:
(§3) For the in vitro binding assay, Sf9 cells were solubilized in lysis buffer containing 2% (w/v) n-dodecyl-β-D-maltopyranoside (DDM, Anatrace) and protease inhibitor cocktail (0.8 μM aprotinin, 2 μM pepstatin, and 5 μg/ml leupeptin) at 4 °C for 2 h. The soluble supernatant was collected via centrifugation and incubated with Ni-NTA resin (QIAGEN) at 4 °C for 1 h. The resin was washed and eluted using lysis buffer containing 0.05% (w/v) DDM and 30 mM/300 mM imidazole. The protein was further purified by size-exclusion chromatography (Superdex 200 Increase 10/300; GE Healthcare) in buffer containing 25 mM MES (pH 6.0), 150 mM NaCl, and 0.05% (w/v) DDM. The peak fractions were pooled and concentrated to 10~50 μM for the nucleoside-binding assay.
(§4) The binding affinity between wild-type and mutant PfENT1 with nucleosides and GSK4 was measured using a Micro-Cal ITC200 (Malvern). All proteins were prepared in 25 mM MES (pH 6.0), 150 mM NaCl, and 0.05% (w/v) DDM. Nucleosides (5~10 mM) and GSK4 (100-200 μM) dissolved in the same buffer were titrated against 20–50 μM PfENT1 proteins at 25 °C. PEAQ-ITC analysis software (MicroCal) was employed to analyze the data. All titrations were repeated three times.

Another experiment concerns the target T4, PfENT1 mutant Q135A (Plasmodium falciparum, UniProt Q8IDM6, Q135A).
T4 construct: 10xHis (N); made in house; host or cells: Sf9 insect cells (baculovirus)
The experiment in a line: ITC binding to PfENT1 mutant Q135A. Particulars: Fig. 3c. On the procedure: as §3, §4

Molecules are shown by their SMILES.

T4 sequence (Q8IDM6 whole entry Q135A): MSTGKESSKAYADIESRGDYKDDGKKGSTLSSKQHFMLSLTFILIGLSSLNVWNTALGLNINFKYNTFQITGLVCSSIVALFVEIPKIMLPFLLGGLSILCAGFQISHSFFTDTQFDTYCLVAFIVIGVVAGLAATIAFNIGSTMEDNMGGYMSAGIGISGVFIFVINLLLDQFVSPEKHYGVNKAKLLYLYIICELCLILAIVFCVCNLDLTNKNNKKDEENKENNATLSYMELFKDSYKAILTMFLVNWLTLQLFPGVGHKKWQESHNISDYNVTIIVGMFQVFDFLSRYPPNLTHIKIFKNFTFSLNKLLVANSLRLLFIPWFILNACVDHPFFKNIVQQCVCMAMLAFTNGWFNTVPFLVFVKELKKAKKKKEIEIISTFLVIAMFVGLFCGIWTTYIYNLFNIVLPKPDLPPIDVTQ
T1 sequence (Q8IDM6 whole entry Q135A): as above
T2 sequence (Q8IDM6 whole entry D287A): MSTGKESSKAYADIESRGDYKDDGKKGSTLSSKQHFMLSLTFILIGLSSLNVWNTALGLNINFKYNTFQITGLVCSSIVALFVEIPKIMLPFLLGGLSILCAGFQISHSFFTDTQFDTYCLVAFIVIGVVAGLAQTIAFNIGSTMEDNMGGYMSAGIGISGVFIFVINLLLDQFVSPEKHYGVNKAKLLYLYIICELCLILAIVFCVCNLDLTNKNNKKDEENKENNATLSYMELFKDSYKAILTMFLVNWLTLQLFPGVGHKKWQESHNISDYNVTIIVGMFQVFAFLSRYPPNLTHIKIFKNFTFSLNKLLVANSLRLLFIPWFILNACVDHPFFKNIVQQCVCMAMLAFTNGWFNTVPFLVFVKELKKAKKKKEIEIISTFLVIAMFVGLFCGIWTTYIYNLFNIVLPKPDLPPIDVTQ

Take `OC[C@H]1O[C@@H](n2cnc3c(O)ncnc32)[C@H](O)[C@@H]1O` [Inosine, inosine]: the “Uptake of [3H]-inosine (Percentage of PfENT1 WT)” value at PfENT1 Q135A and on PfENT1 D287A was “abolished the transport activity” throughout. On PfENT1Y190A, the inosine-binding affinity result is given as “similar”. For the same molecule, the “binding affinity (Kd)” value on PfENT1 mutant Q135A is given as “complete abolishment”.
